Reference: the OligoGym collection
HELM strings list units from the 5' end as sugar, base in round brackets, then linkage (d deoxyribose, r ribose, m 2'-O-methyl, p phosphodiester). Strings are as the collection lists them, not checked against the first reports. ss, as = sense and antisense strand; [lna] = locked nucleic acid (LNA); [s4r] = 4'-thioribose; [fl2r] = 2'-fluoro

Conditions: siRNA
Further: test system not given here.

Substance	target mRNA knockdown [%]
RNA1{r(C)p.r(U)p.r(U)p.r(A)p.r(C)p.r(G)p.r(C)p.r(U)p.r(G)p.r(A)p.r(G)p.r(U)p.r(A)p.r(C)p.r(U)p.r(U)p.r(C)p.r(G)p.r(A)p.r(T)p.r(T)}|RNA2{r(U)p.r(C)p.r(G)p.r(A)p.[lna](A)p.r(G)p.r(U)p.r(A)p.r(C)p.r(U)p.r(C)p.r(A)p.r(G)p.r(C)p.r(G)p.r(U)p.r(A)p.r(A)p.r(G)p.r(T)p.r(T)}$$$RNA1{StrandType:ss}|RNA2{StrandType:as}$	83
RNA1{r(C)p.r(G)p.r(U)p.r(A)p.r(C)p.r(G)p.r(C)p.r(G)p.r(G)p.r(A)p.r(A)p.r(U)p.r(A)p.r(C)p.r(U)p.[s4r](U)p.[s4r](C)p.[s4r](G)p.[s4r](A)p.r(T)p.r(T)}|RNA2{[s4r](U)p.[s4r](C)p.[s4r](G)p.[s4r](A)p.r(A)p.r(G)p.r(U)p.r(A)p.r(U)p.r(U)p.r(C)p.r(C)p.r(G)p.r(C)p.r(G)p.r(U)p.r(A)p.r(C)p.r(G)p.r(T)p.r(T)}$$$RNA1{StrandType:ss}|RNA2{StrandType:as}$	35.1
RNA1{r(A)p.r(G)p.r(A)p.r(A)p.r(A)p.r(C)p.r(G)p.r(C)p.r(A)p.r(G)p.m(U)p.r(A)p.r(A)p.r(U)p.r(C)p.r(C)p.r(G)p.r(G)p.r(A)p.r(T)p.r(T)}|RNA2{r(U)p.r(C)p.r(C)p.r(G)p.r(G)p.r(A)p.r(U)p.r(U)p.r(A)p.r(C)p.m(U)p.r(G)p.r(C)p.r(G)p.r(U)p.r(U)p.r(U)p.r(C)p.r(U)p.r(T)p.r(T)}$$$RNA1{StrandType:ss}|RNA2{StrandType:as}$	82
RNA1{r(C)p.r(G)p.r(U)p.r(A)p.r(C)p.r(G)p.r(C)p.r(G)p.r(G)p.r(A)p.r(A)p.r(U)p.r(A)p.r(C)p.r(U)p.r(U)p.r(C)p.r(G)p.r(A)p.r(T)p.r(T)}|RNA2{r(U)p.[s4r](C)p.r(G)p.r(A)p.r(A)p.r(G)p.r(U)p.r(A)p.r(U)p.r(U)p.[s4r](C)p.[s4r](C)p.r(G)p.[s4r](C)p.r(G)p.r(U)p.r(A)p.[s4r](C)p.r(G)p.r(T)p.r(T)}$$$RNA1{StrandType:ss}|RNA2{StrandType:as}$	68.5
RNA1{m(A)p.r(G)p.m(C)p.r(C)p.m(A)p.r(C)p.m(A)p.r(U)p.m(U)p.r(U)p.m(C)p.r(U)p.m(A)p.r(G)p.m(G)p.r(A)p.m(G)p.r(A)p.r(U)p.r(T)p.r(T)}|RNA2{r(A)p.r(U)p.r(C)p.r(U)p.r(C)p.r(C)p.r(U)p.r(A)p.r(G)p.r(A)p.r(A)p.r(A)p.r(U)p.r(G)p.r(U)p.r(G)p.r(G)p.r(C)p.r(U)p.r(T)p.r(T)}$$$RNA1{StrandType:ss}|RNA2{StrandType:as}$	19
RNA1{[fl2r](A)p.r(A)p.[fl2r](C)p.r(U)p.[fl2r](C)p.r(U)p.[fl2r](A)p.r(C)p.[fl2r](U)p.r(G)p.[fl2r](U)p.r(G)p.[fl2r](G)p.r(A)p.[fl2r](G)p.r(U)p.[fl2r](C)p.r(G)p.[fl2r](G)p.r(T)p.r(T)}|RNA2{r(C)p.r(C)p.[fl2r](G)p.r(A)p.r(C)p.r(U)p.r(C)p.r(C)p.r(A)p.r(C)p.r(A)p.[fl2r](G)p.r(U)p.r(A)p.[fl2r](G)p.r(A)p.[fl2r](G)p.r(U)p.r(U)p.r(T)p.r(T)}$$$RNA1{StrandType:ss}|RNA2{StrandType:as}$	25
RNA1{r(A)p.r(A)p.r(C)p.r(C)p.r(C)p.r(A)p.r(A)p.r(A)p.r(G)p.r(G)p.r(G)p.r(G)p.r(A)p.r(G)p.r(U)p.m(U)p.r(G)p.r(C)p.r(U)p.r(T)p.r(T)}|RNA2{r(A)p.r(G)p.r(C)p.r(A)p.r(A)p.r(C)p.r(U)p.r(C)p.r(C)p.r(C)p.r(C)p.r(U)p.r(U)p.m(U)p.r(G)p.r(G)p.r(G)p.r(U)p.r(U)p.r(T)p.r(T)}$$$RNA1{StrandType:ss}|RNA2{StrandType:as}$	83
RNA1{r(C)p.r(G)p.r(U)p.r(A)p.r(C)p.r(G)p.r(C)p.r(G)p.r(G)p.r(A)p.r(A)p.r(U)p.r(A)p.r(C)p.r(U)p.r(U)p.r(C)p.r(G)p.r(A)p.r(T)p.r(T)}|RNA2{r(U)p.r(C)p.r(G)p.r(A)p.r(A)p.r(G)p.r(U)p.r(A)p.r(U)p.r(U)p.r(C)p.r(C)p.r(G)p.r(C)p.r(G)p.r(U)p.r(A)p.[s4r](C)p.[s4r](G)p.r(T)p.r(T)}$$$RNA1{StrandType:ss}|RNA2{StrandType:as}$	90.2
RNA1{r(G)p.r(A)p.r(C)p.r(G)p.r(U)p.r(A)p.r(A)p.r(A)p.r(C)p.r(G)p.r(G)p.r(C)p.r(C)p.r(A)p.r(C)p.r(A)p.r(A)p.r(G)p.r(U)p.r(U)p.r(C)}|RNA2{r(A)p.r(C)p.r(U)p.r(U)p.r(G)p.r(U)p.r(G)p.r(G)p.r(C)p.r(C)p.r(G)p.r(U)p.r(U)p.r(U)p.r(A)p.r(C)p.r(G)p.r(U)p.[lna](C)p.[lna](G)p.r(C)}$$$RNA1{StrandType:ss}|RNA2{StrandType:as}$	86.3
RNA1{r(C)p.r(G)p.r(U)p.r(A)p.r(C)p.r(G)p.r(C)p.r(G)p.r(G)p.r(A)p.r(A)p.r(U)p.r(A)p.r(C)p.r(U)p.r(U)p.r(C)p.r(G)p.r(A)p.r(T)p.r(T)}|RNA2{m(U)p.m(C)p.m(G)p.m(A)p.m(A)p.m(G)p.r(U)p.r(A)p.r(U)p.r(U)p.r(C)p.r(C)p.r(G)p.r(C)p.r(G)p.r(U)p.r(A)p.r(C)p.r(G)p.r(T)p.r(T)}$$$RNA1{StrandType:ss}|RNA2{StrandType:as}$	10.3
RNA1{r(C)p.r(C)p.r(G)p.r(A)p.r(G)p.r(A)p.r(G)p.r(C)p.r(U)p.r(C)p.r(U)p.r(C)p.r(C)p.m(U)p.r(A)p.r(C)p.r(C)p.r(U)p.r(U)p.r(T)p.r(T)}|RNA2{r(A)p.r(A)p.r(G)p.r(G)p.m(U)p.r(A)p.r(G)p.r(G)p.r(A)p.r(G)p.r(A)p.r(G)p.r(C)p.r(U)p.r(C)p.r(U)p.r(C)p.r(G)p.r(G)p.r(T)p.r(T)}$$$RNA1{StrandType:ss}|RNA2{StrandType:as}$	75
RNA1{[s4r](A)p.[s4r](A)p.[s4r](A)p.[s4r](C)p.r(A)p.r(U)p.r(G)p.r(C)p.r(A)p.r(G)p.r(A)p.r(A)p.r(A)p.r(A)p.r(U)p.r(G)p.r(C)p.r(U)p.r(G)p.r(T)p.r(T)}|RNA2{[s4r](C)p.[s4r](A)p.r(G)p.r(C)p.r(A)p.r(U)p.r(U)p.r(U)p.r(U)p.r(C)p.r(U)p.r(G)p.r(C)p.r(A)p.r(U)p.r(G)p.r(U)p.[s4r](U)p.[s4r](U)p.r(T)p.r(T)}$$$RNA1{StrandType:ss}|RNA2{StrandType:as}$	60.2
RNA1{r(C)p.r(U)p.r(U)p.r(A)p.r(C)p.r(G)p.r(C)p.r(U)p.r(G)p.r(A)p.r(G)p.r(U)p.r(A)p.r(C)p.r(U)p.r(U)p.r(C)p.r(G)p.r(A)p.r(T)p.r(T)}|RNA2{r(T)p.r(C)p.r(G)p.r(A)p.r(A)p.r(G)p.r(U)p.[lna](A)p.r(C)p.r(U)p.r(C)p.r(A)p.r(G)p.r(C)p.r(G)p.r(U)p.r(A)p.r(A)p.r(G)p.[lna](T)p.[lna](T)}$$$RNA1{StrandType:ss}|RNA2{StrandType:as}$	90
RNA1{r(A)p.r(G)p.m(A)p.r(G)p.r(A)p.r(G)p.r(G)p.m(U)p.r(G)p.r(G)p.r(A)p.r(G)p.r(G)p.m(U)p.r(A)p.r(U)p.r(C)p.r(U)p.r(C)p.r(T)p.r(T)}|RNA2{r(G)p.r(A)p.r(G)p.r(A)p.m(U)p.r(A)p.r(C)p.r(C)p.r(U)p.r(C)p.m(C)p.r(A)p.r(C)p.r(C)p.r(U)p.m(C)p.r(U)p.r(C)p.r(U)p.r(T)p.r(T)}$$$RNA1{StrandType:ss}|RNA2{StrandType:as}$	87
RNA1{m(C)p.r(C)p.m(G)p.r(A)p.m(A)p.r(G)p.m(A)p.r(C)p.m(G)p.r(A)p.m(A)p.r(G)p.m(C)p.r(U)p.m(A)p.r(U)p.m(G)p.r(A)p.m(A)p.r(T)p.r(T)}|RNA2{r(U)p.r(U)p.r(C)p.r(A)p.r(U)p.r(A)p.m(G)p.r(C)p.r(U)p.r(U)p.r(C)p.m(G)p.r(U)p.r(C)p.r(U)p.r(U)p.r(C)p.m(G)p.m(G)p.r(T)p.r(T)}$$$RNA1{StrandType:ss}|RNA2{StrandType:as}$	51
RNA1{r(G)p.r(C)p.r(U)p.r(U)p.r(C)p.r(G)p.r(G)p.r(A)p.r(A)p.r(A)p.r(C)p.[fl2r](U)p.[fl2r](G)p.r(G)p.r(A)p.[fl2r](C)p.r(A)p.r(U)p.r(C)p.r(T)p.r(T)}|RNA2{r(G)p.r(A)p.[fl2r](U)p.r(G)p.r(U)p.r(C)p.[fl2r](C)p.[fl2r](A)p.r(G)p.r(U)p.r(U)p.r(U)p.r(C)p.r(C)p.r(G)p.r(A)p.r(A)p.r(G)p.r(C)p.r(T)p.r(T)}$$$RNA1{StrandType:ss}|RNA2{StrandType:as}$	87
RNA1{r(C)p.r(C)p.r(U)p.r(C)p.r(G)p.r(G)p.r(A)p.r(G)p.r(A)p.r(G)p.r(U)p.r(U)p.r(C)p.m(U)p.r(A)p.r(C)p.r(U)p.r(C)p.r(U)p.r(T)p.r(T)}|RNA2{r(A)p.r(G)p.r(A)p.r(G)p.m(U)p.r(A)p.r(G)p.r(A)p.r(A)p.r(C)p.r(U)p.r(C)p.r(U)p.r(C)p.r(C)p.r(G)p.r(A)p.r(G)p.r(G)p.r(T)p.r(T)}$$$RNA1{StrandType:ss}|RNA2{StrandType:as}$	85
RNA1{[lna](C)p.r(U)p.r(A)p.r(A)p.r(G)p.r(G)p.r(A)p.r(C)p.r(C)p.r(U)p.r(A)p.r(A)p.r(C)p.r(A)p.r(A)p.r(A)p.r(G)p.r(U)p.r(U)p.r(U)p.r(U)}|RNA2{r(A)p.r(A)p.r(C)p.r(U)p.r(U)p.r(U)p.r(G)p.r(U)p.r(U)p.r(A)p.r(G)p.r(G)p.r(U)p.r(C)p.r(C)p.r(U)p.r(U)p.r(A)p.r(G)p.r(U)p.r(U)}$$$RNA1{StrandType:ss}|RNA2{StrandType:as}$	64
RNA1{r(A)p.r(U)p.r(C)p.r(G)p.r(C)p.[fl2r](U)p.r(G)p.r(C)p.r(U)p.r(C)p.r(C)p.r(U)p.r(C)p.r(C)p.r(U)p.r(C)p.r(C)p.r(U)p.r(C)p.r(T)p.r(T)}|RNA2{r(G)p.r(A)p.r(G)p.r(G)p.r(A)p.r(G)p.r(G)p.r(A)p.r(G)p.r(G)p.r(A)p.r(G)p.[fl2r](C)p.r(A)p.r(G)p.r(C)p.r(G)p.r(A)p.r(U)p.r(T)p.r(T)}$$$RNA1{StrandType:ss}|RNA2{StrandType:as}$	71
RNA1{r(C)p.r(G)p.r(U)p.r(A)p.r(C)p.r(G)p.r(C)p.r(G)p.r(G)p.r(A)p.r(A)p.r(U)p.r(A)p.r(C)p.r(U)p.r(U)p.r(C)p.r(G)p.r(A)p.r(T)p.r(T)}|RNA2{[s4r](U)p.[s4r](C)p.r(G)p.r(A)p.r(A)p.r(G)p.r(U)p.r(A)p.r(U)p.r(U)p.r(C)p.r(C)p.r(G)p.r(C)p.r(G)p.r(U)p.r(A)p.r(C)p.r(G)p.r(T)p.r(T)}$$$RNA1{StrandType:ss}|RNA2{StrandType:as}$	95
